Measured values taken from paper PMC11672637, “7-O-Carboxylic Acid-Substituted 3-O-Alkyl Difluoroquercetin; An Aztreonam-Potentiating Agent Against Carbapenemase-Producing Pseudomonas aeruginosa Through Simultaneous Inhibition of Metallo-β-Lactamase and Efflux Pump” (Antibiotics, 2024).

What was measured:
Experiment in all cases: MIC / checkerboard with ATM
Design in all cases: key to Susceptibility category: S: susceptible; I: intermediate; R: resistant
[1] = tested on: PA-026, blaNDM; assay type: cell-based, P. aeruginosa; conditions: PA-026, Table S2; for MIC: Pseudomonas aeruginosa, read-out: MIC value
[2] = tested on: PA-036, blaNDM; assay type: cell-based, P. aeruginosa; conditions: PA-036; Table S2
[3] = tested on: PA-044, blaNDM; assay type: cell-based, P. aeruginosa; conditions: PA-044; Table S2
[4] = tested on: PA-031, blaNDM; assay type: cell-based, P. aeruginosa; conditions: PA-031; Table S2
[5] = tested on: PA-021, blaIMP; assay type: cell-based, P. aeruginosa; conditions: PA-021; Table S2
[6] = tested on: PA-025, blaNDM; assay type: cell-based, P. aeruginosa; conditions: PA-025; Table S2
[7] = tested on: PA-009, blaGES; assay type: cell-based, P. aeruginosa; conditions: PA-009; Table S2
[8] = tested on: PA-037, blaIMP/NDM; assay type: cell-based, P. aeruginosa; conditions: PA-037; Table S2
[9] = tested on: PA-032, blaIMP; assay type: cell-based, P. aeruginosa; conditions: PA-032, Table S2
[10] = tested on: PA-030, blaIMP; assay type: cell-based, P. aeruginosa; conditions: PA-030; Table S2
[11] = tested on: PA-027, blaIMP; assay type: cell-based, P. aeruginosa; conditions: PA-027; Table S2
[12] = tested on: PA-014, blaGES; assay type: cell-based, P. aeruginosa; conditions: PA-014; Table S2
[13] = tested on: PA-029, blaIMP; assay type: cell-based, P. aeruginosa; conditions: PA-029; Table S2
[14] = tested on: NDM-1-Producing P. aeruginosa (PA-017, blaNDM); assay type: cell-based; conditions: PA-017; Table S2
[15] = tested on: PA-042, blaIMP/NDM; assay type: cell-based, P. aeruginosa; conditions: PA-042, Table S2
[16] = tested on: PA-033, blaNDM; assay type: cell-based, P. aeruginosa; conditions: PA-033; Table S2
[17] = tested on: PA-034, blaNDM; assay type: cell-based, P. aeruginosa; conditions: PA-034; Table S2
[18] = tested on: PA-028, blaNDM; assay type: cell-based, P. aeruginosa; conditions: PA-028; Table S2
[19] = tested on: PA-002, blaIMP; assay type: cell-based, P. aeruginosa; conditions: PA-002, Table S2; for MIC: Pseudomonas aeruginosa, read-out: MIC value
[20] = tested on: PA-016, blaIMP; assay type: cell-based, P. aeruginosa; conditions: PA-016; Table S2
[21] = tested on: PA-035, blaGES; assay type: cell-based, P. aeruginosa; conditions: PA-035, Table S2; for MIC: Pseudomonas aeruginosa, read-out: MIC value
[22] = tested on: PA-040, blaNDM; assay type: cell-based, P. aeruginosa; conditions: PA-040; Table S2
[23] = tested on: PA-003, blaVIM; assay type: cell-based, P. aeruginosa; conditions: PA-003, Table S2; for MIC: Pseudomonas aeruginosa, read-out: MIC value
[24] = tested on: PA-039, blaNDM; assay type: cell-based, P. aeruginosa; conditions: PA-039, Table S2
[25] = tested on: PA-038, blaNDM; assay type: cell-based, P. aeruginosa; conditions: PA-038; Table S2
[26] = tested on: PA-041, blaNDM; assay type: cell-based, P. aeruginosa; conditions: PA-041, Table S2
[27] = Pseudomonas aeruginosa, read-out: MIC value

Q: What does the source list for `CNC(C)C1CCC(N)C(OC2C(N)CC(N)C(OC3OCC(C)(O)C(NC)C3O)C2O)O1` (stereo not drawn) [GEN, gentamicin, reference compound]?
A: Susceptibility category [1]: S; MIC [1]: ≤ 2 µg/mL; Susceptibility category [2]: R; Susceptibility category [3]: R; Susceptibility category [4]: R; Susceptibility category [5]: R; Susceptibility category [6]: R; Susceptibility category [7]: I; Susceptibility category [8]: R; Susceptibility category [9]: S; Susceptibility category [10]: R; Susceptibility category [11]: R; Susceptibility category [12]: R; Susceptibility category [13]: R; Susceptibility category [14]: R; Susceptibility category [15]: R; Susceptibility category [16]: R; Susceptibility category [17]: R; Susceptibility category [18]: R; Susceptibility category [19]: R; MIC [19]: > 8 µg/mL; Susceptibility category [20]: R; Susceptibility category [21]: R; Susceptibility category [22]: R; Susceptibility category [23]: R; MIC [23]: > 8 µg/mL; Susceptibility category [24]: S; MIC [24, 27]: ≤ 2 µg/mL; Susceptibility category [25]: R; Susceptibility category [26]: S; MIC [26, 27]: ≤ 2 µg/mL

Q: What does the source list for `C[C@@H](O)[C@H]1C(=O)N2C(C(=O)O)=C(SCCN=CN)C[C@H]12` [IPM, imipenem, reference compound]?
A: Susceptibility category [1]: I; MIC [1]: 4 µg/mL; Susceptibility category [2]: R; Susceptibility category [3]: R; Susceptibility category [4]: R; Susceptibility category [5]: R; Susceptibility category [6]: R; Susceptibility category [7]: R; Susceptibility category [8]: R; Susceptibility category [9]: R; Susceptibility category [10]: R; Susceptibility category [11]: R; Susceptibility category [12]: R; Susceptibility category [13]: R; Susceptibility category [14]: R; Susceptibility category [15]: R; MIC [15, 27]: > 8 µg/mL; Susceptibility category [16]: R; Susceptibility category [17]: R; Susceptibility category [18]: R; Susceptibility category [19]: R; MIC [19]: > 8 µg/mL; Susceptibility category [20]: R; Susceptibility category [21]: R; MIC [21]: 8 µg/mL; Susceptibility category [22]: R; Susceptibility category [23]: R; MIC [23]: > 8 µg/mL; Susceptibility category [24]: R; Susceptibility category [25]: R; Susceptibility category [26]: R

Q: How did the Susceptibility category [1] turn out when `C[C@@H](O)[C@H]1C(=O)N2C(C(=O)O)=C(S[C@@H]3CN[C@H](C(=O)N(C)C)C3)[C@H](C)[C@H]12` [MEM, meropenem, reference compound] was run?
A: The Susceptibility category was “S”.

Q: And the MIC [1]?
A: The MIC was at most 0.25 µg/mL.

Q: What about the Susceptibility category [2] of the same compound?
A: The Susceptibility category was “R”.

Q: And the Susceptibility category [3]?
A: The Susceptibility category was “R”.

Q: And the Susceptibility category [4]?
A: The Susceptibility category was “R”.

Q: And the Susceptibility category [5]?
A: The Susceptibility category was “R”.

Q: And the Susceptibility category [6]?
A: The Susceptibility category was “R”.

Q: And the Susceptibility category [7]?
A: Its Susceptibility category is “R”.

Q: What about the Susceptibility category [8] of the same compound?
A: The Susceptibility category was “R”.

Q: What about the Susceptibility category [9] of the same compound?
A: Its Susceptibility category is “R”.

Q: What about the MIC [9, 27] of the same compound?
A: The MIC was 32 µg/mL.

Q: What about the Susceptibility category [10] of the same compound?
A: Its Susceptibility category is “R”.

Q: What about the Susceptibility category [11] of the same compound?
A: The Susceptibility category was “R”.

Q: What about the Susceptibility category [12] of the same compound?
A: The Susceptibility category was “R”.

Q: And the Susceptibility category [13]?
A: The Susceptibility category was “R”.

Q: What about the Susceptibility category [14] of the same compound?
A: The Susceptibility category was “R”.

Q: What about the Susceptibility category [15] of the same compound?
A: The Susceptibility category was “R”.

Q: What about the Susceptibility category [16] of the same compound?
A: The Susceptibility category was “R”.

Q: What about the Susceptibility category [17] of the same compound?
A: Its Susceptibility category is “R”.

Q: What about the Susceptibility category [18] of the same compound?
A: The Susceptibility category was “R”.

Q: What about the Susceptibility category [19] of the same compound?
A: The Susceptibility category was “R”.

Q: What about the MIC [19] of the same compound?
A: Its MIC is over 32 µg/mL.

Q: And the Susceptibility category [20]?
A: Its Susceptibility category is “R”.

Q: What about the Susceptibility category [21] of the same compound?
A: Its Susceptibility category is “R”.

Q: And the MIC [21]?
A: The MIC was 16 µg/mL.

Q: What about the Susceptibility category [22] of the same compound?
A: Its Susceptibility category is “R”.

Q: And the Susceptibility category [23]?
A: The Susceptibility category was “R”.

Q: And the MIC [23]?
A: Its MIC is 16 µg/mL.

Q: What about the Susceptibility category [24] of the same compound?
A: The Susceptibility category was “R”.

Q: What about the Susceptibility category [25] of the same compound?
A: Its Susceptibility category is “R”.

Q: And the Susceptibility category [26]?
A: Its Susceptibility category is “R”.
